Tested on: Lkb1-null cells
Experiment: In vitro study of combination treatments with AZD7762
Type: cell-based, mouse
Conditions: data not shown

Nc1ccn([C@@H]2O[C@H](CO)[C@@H](O)C2(F)F)c(=O)n1 [Gemcitabine]
synergy with AZD7762 in the treatment of Lkb1-null cells: moderately synergistic

Reference: patent publication US20140314791A1, “METHODS OF TREATING CANCER” (DANA-FARBER CANCER INSTITUTE, INC., priority 2012, published 2014)
